Measured values from US7906549B2, “Aminocarboxylic acid derivative and medicinal use thereof” (Ono Pharmaceutical Co., Ltd., priority 2004, dated 2011).
Counter-ions that a name gives are not always drawn.

Tests used:
Human EDG-1 = molecular target: T1, Human EDG-1 (Homo sapiens, UniProt P21453); test: Agonistic activity against EDG by monitoring changes in intracellular calcium ion [Ca^2+]i concentration; format: cell-based; settings: Human EDG-1 overexpressing CHO cells; read-out: EC50 (increase in intracellular calcium ion concentration)
T1 construct: expressed in transfected cells; host or cells: CHO cells
Method: Human EDG-1, EDG-3, EDG-5, or EDG-8 gene overexpressing CHO cells were cultured in Ham's F12 medium (manufactured by GibcoBRL) containing 10% FBS (fetal bovine serum), penicillin/streptomycin, and blasticidin (5 μg/ml). The cultured cells were incubated in a 5 μM Fura2-AM solution (Ham's F12 medium containing 10% of FBS, 20 mM HEPES buffer (pH7.4), and 2.5 mM probenecid) at 37° C. for 60 minutes. After washing once with Hanks solution containing 20 mM HEPES buffer (pH7.4) and 2.5 mM probenecid, the plate was soaked in the same solution. Then, the plate was set on a fluorescent drug screening system (FDSS 6000; Hamamatsu Photonics K. K.) and the intracellular calcium ion concentration was measured without stimulation for 30 seconds. A test compound (final concentration: 1 nM to 10 μM, dimethylsulfoxide (DMSO) solution) was added and S1P (final concentration: 100 nM) was added 5 minutes thereafter. Then, the increase in the intracellular calcium ion concentration was measured before and after the addition of S1P at intervals of 3 seconds (excitation wavelength: 340 nm and 380 nm, fluorescence wavelength: 500 nm).
The agonistic activity of the compound against each EDG was determined by using the peak value due to S1P-stimulation in a well containing DMSO as a substitute for the evaluated compound as a control value (A), comparing the value […] the addition of the evaluated compound with the increased value (B) in the fluorescent ratio after the addition, and calculating the increase ratio (%) in the intracellular calcium ion [Ca^2+]i concentration as: increase ratio (%)=(B/A)×100. Increase ratios of the compound at individual concentrations were determined and the EC50 value was calculated.

[1] = system: experimental allergic encephalomyelitis; test: Experimental allergic encephalomyelitis (EAE) model, Case 2: administration from immediately before development of symptoms; format: in vivo, Female LEW/CrlCrlj rats; settings: oral dose of 0.3 mg/kg once a day, from Day 9 to Day 19
Method: Killed Mycobacterium tuberculosis (M. tuberculosis H37 Ra, Difco, Cat No. 231141) was suspended in distilled water for injection to dissolve MBP (Myelin basic protein, SIGMA, Cat No. M-2295) (Killed Mycobacterium tuberculosis: 1000 μg/mL, MBP: 60 μg/mL). This solution was mixed with an equivalent amount of FCA (Freund Complete Adjuvant, CHEMICON, Cat No. AR001) to thereby prepare an emulsion. Female LEW/CrlCrlj rats (Charles River Laboratories, Japan, Inc., 6-week-old at the time of purchase, 7-week-old at the time of sensitization) were antigen-sensitized by a single subcutaneous injection (0.1 mL/rat) of the emulsion in the right foot pad under slight ether anesthesia, thereby inducing the symptoms of experimental allergic encephalomyelitis. […]
The EAE symptoms of the rats were observed every day from Day 7 to Day 20, and evaluated based on the following criteria: Tail relaxation: 1 point, Incomplete paralysis of hind legs: 1 point, Complete paralysis of hind legs: another 1 point, and Incontinentia: 1 point. […]
Using 0.5% MC solution (0.5 w/v % Methyl Cellulose 400cP Solution, Wako Pure Chemical Industries, Ltd., Cat No. 133-14255) as a vehicle, the test compound was forcibly administered orally in an amount of 5 mL/kg once a day from Day 9 […] sensitization to Day 19. […] The body weight was measured every day from Day 9 and the dose was determined based on the body weight of each day.

[2] = system: experimental allergic encephalomyelitis; test: Experimental allergic encephalomyelitis (EAE) model, Case 1: administration from the day of sensitization; format: in vivo, Female LEW/CrlCrlj rats; settings: from the day of sensitization to Day 19
Method: Killed Mycobacterium tuberculosis (M. tuberculosis H37 Ra, Difco, Cat No. 231141) was suspended in distilled water for injection to dissolve MBP (Myelin basic protein, SIGMA, Cat No. M-2295) (Killed Mycobacteriumtuberculosis: 1000 μg/mL, MBP: 60 μg/mL). This solution was mixed with an equivalent amount of FCA (Freund Complete Adjuvant, CHEMICON, Cat No. AR001) to thereby prepare an emulsion. Female LEW/CrlCrlj rats (Charles River Laboratories, Japan, Inc., 6-week-old at the time of purchase, 7-week-old at the time of sensitization) were antigen-sensitized by a single subcutaneous injection (0.1 mL/rat) of the emulsion in the right foot pad under slight ether anesthesia, thereby inducing the symptoms of experimental allergic encephalomyelitis. The day of sensitization was defined as Day 0.
The EAE symptoms of the rats were observed every day from Day 8 to Day 20, and were evaluated based on the following criteria: Tail relaxation: 1 point, Incomplete paralysis of hind legs: 1 point, Complete paralysis of hind legs: another 1 point, and Incontinentia: 1 point. The maximum score was 4 points. Death was 5 points.
Using a 0.5% MC solution (0.5 w/v % Methyl Cellulose 400cP Solution, Wako Pure Chemical Industries, Ltd., Cat No. 133-14255) as a vehicle, the test compound was forcibly administered orally in an amount of 5 mL/kg once a day from […] the day of sensitization to Day 19. To a control group, the same amount of 0.5% MC solution was forcibly administered orally once a day for the same period. The body weight was measured every day from Day 0 and the dose was determined based on the body weight of each day.

lymphocyte in blood = test: Counting the number of lymphocyte in blood after oral administration; format: in vivo, male BALB/c mice or male Sprague-Dawley rats; settings: Mus musculus, 24 hours after the administration, read-out: ED50 (dose required for lowering the blood cell count to 50%)
Method: Test compounds were orally administered to male BALB/c mice or male Sprague-Dawley rats (Charles River Laboratories, Japan, Inc., 6-week-old at the time of use). 4 to 72 hours after the administration, the blood was collected from the aorta abdominalis under ether anesthesia. The number of the total leucocyte count, the lymphocyte count, the neutrophil count, the erythrocyte count, the platelet count in blood and the hematocrit value were measured with a multipurpose automatic blood cell counter (SF-3000, manufactured by Sysmex Corporation). Evaluation was made by setting the average blood cell count in a vehicle-administered group (vehicle group) as 100% and calculating the percentage of vehicle from the average blood cell count of each test compound-administered group.

heart rate = test: Evaluation of cardiotoxicity (bradycardia); format: in vivo; settings: rabbits, intravenously administered, dose of 0.01 mg/kg
From the text: A catheter was inserted into the jugular vein and carotid artery (or the femoral vein and femoral artery) of mammals (e.g., SD rat and a rabbit). The tip of the arterial cannula was connected to a pressure transducer (DX-100, manufactured by NIHON KOHDEN CORP.), thereby measuring blood pressure through a strain pressure amplifier (AP-641G, manufactured by NIHON KOHDEN CORP.) and measuring heart rate through an instantaneous heart rate measuring unit (AT-601G, manufactured by NIHON KOHDEN CORP.), respectively. Alternatively, heart rate was measured with an electrocardiogram. Under anesthesia or under awareness after arousal was induced, the test compound was administered intravenously or administered orally. Then, changes in blood pressure and heart rate were measured.

[3] = oral dose of 0.3 mg/kg once a day

T1 sequence (P21453 whole entry): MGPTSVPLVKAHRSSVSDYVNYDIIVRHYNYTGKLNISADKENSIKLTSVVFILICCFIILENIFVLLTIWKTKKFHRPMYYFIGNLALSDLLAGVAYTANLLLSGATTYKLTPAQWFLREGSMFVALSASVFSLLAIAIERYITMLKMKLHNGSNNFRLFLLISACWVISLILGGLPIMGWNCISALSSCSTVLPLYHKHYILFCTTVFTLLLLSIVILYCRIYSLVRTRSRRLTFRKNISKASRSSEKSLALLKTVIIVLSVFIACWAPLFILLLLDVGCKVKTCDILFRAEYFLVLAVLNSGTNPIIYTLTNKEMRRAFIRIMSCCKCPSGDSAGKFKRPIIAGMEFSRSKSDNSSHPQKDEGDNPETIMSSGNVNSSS

Row | Compound | EC50 (Human EDG-1) [nM] | melting point [°C] | other results
1 | O=C(O)CCN1CC=C(c2ccc(OCCCc3ccc(Cl)cc3)cc2)CC1 [Example 29-1, 3-[4-{4-[3-(4-chlorophenyl)propoxy]phenyl}-3,6-dihydropyridin-1(2H)-yl]propanoic acid trifluoroacetate] | 133 |  | 
2 | CC1=C(CN2CC(C(=O)O)C2)CCc2cc(OCc3ccc(C(F)(F)F)cc3C(F)(F)F)ccc21 [Example 37-5, 1-[(6-{[2,4-bis(trifluoromethyl)benzyl]oxy}-1-methyl-3,4-dihydro-2-naphthalenyl)methyl]-3-azetidinecarboxylic acid] |  |  | inhibition of the development of EAE symptoms [1]: had the effect of inhibiting the development of symptoms; inhibition of the development of EAE symptoms [2, 3]: almost completely inhibited
3 | CC1=C(CN2CC(C(=O)O)C2)CCc2cc(OCCCc3ccc(Cl)cc3)ccc21 [Example 7-1, 1-({6-[3-(4-chlorophenyl)propoxy]-1-methyl-3,4-dihydro-2-naphthalenyl}methyl)-3-azetidinecarboxylic acid] |  | 165.4 to 166.9 | 
4 | CC1=C(CN2CC(C(=O)O)C2)CCc2cc(OC[C@@H](C)Cc3ccc(F)cc3)ccc21 [Example 7-4, 1-[(6-{[(2S)-3-(4-fluorophenyl)-2-methylpropyl]oxy}-1-methyl-3,4-dihydro-2-naphthalenyl)methyl]-3-azetidinecarboxylic acid] |  | 142.5 to 143.6 | 

Further lines, with some results ahead:

Row | EC50 (Human EDG-1) [nM] | melting point [°C] | Compound | other results
5 | 0.7 |  | CCCc1ccc(COc2ccc3c(c2)CCC(CN2CC(C(=O)O)C2)=C3Cl)c(OC)c1 [Example 37-6, 1-({1-chloro-6-[(2-methoxy-4-propylbenzyl)oxy]-3,4-dihydro-2-naphthalenyl}methyl)-3-azetidinecarboxylic acid] | 
6 | 41 |  | CC(C)Cc1ccc(-c2nc(-c3ccc4c(c3)CCN(CCC(=O)O)C4)no2)cc1 [Example 13-4, 3-[6-[5-(4-isobutylphenyl)-1,2,4-oxadiazol-3-yl]-3,4-dihydro-2(1H)-isoquinolinyl]propanoic acid trifluoroacetate] | 
7 | 0.7 |  | O=C(O)C1CN(CC2=C(Cl)c3ccc(OCCCC4CCCCC4)cc3CC2)C1 [Example 27-7, 1-{[1-chloro-6-(3-cyclohexylpropoxy)-3,4-dihydronaphthalen-2-yl]methyl}azetidine-3-carboxylic acid] | ED50 (lymphocyte in blood): 1.6 mg/kg
8 |  | 148.6 to 148.9 | CC1=C(CN2CC(C(=O)O)C2)CCc2cc(OC[C@@H](C)Cc3ccc(Cl)cc3)ccc21 [Example 7-10, 1-[(6-{[(2S)-3-(4-chlorophenyl)-2-methylpropyl]oxy}-1-methyl-3,4-dihydro-2-naphthalenyl)methyl]-3-azetidinecarboxylic acid] | 
9 | 1 |  | CCCc1ccc(COc2ccc3c(c2)CCC(CN2CC(C(=O)O)C2)=C3C)c(OC)c1 [Example 37, 1-({6-[(2-methoxy-4-propylbenzyl)oxy]-1-methyl-3,4-dihydro-2-naphthalenyl}methyl)-3-azetidinecarboxylic acid] | inhibition of the development of EAE symptoms [1]: almost completely inhibited; inhibition of the development of EAE symptoms ([2]; oral dose of 0.1 mg/kg once a day): almost completely inhibited; inhibition of the development of EAE symptoms [2, 3]: completely inhibited; ED50 (lymphocyte in blood): 0.029 mg/kg; decrease of heart rate (heart rate): ≤ 20%
10 | 662 |  | O=C(O)CCN1CCc2c([nH]c3cc(OCCCc4ccccc4)ccc23)C1 [Example 18, 3-[7-(3-phenylpropoxy)-1,3,4,9-tetrahydro-2H-β-carbolin-2-yl]propanoic acid trifluoroacetate] | 
